Results reported in PubChem BioAssay AID1963448 (Molecular Pharmacology Branch, DTP, NCI, 2024).

System: 616215-338-R-J1-PDC complex spheroid growth, % test/control
Test: Anticancer human tumor 616215-338-R-J1-PDC patient-derived colon adenocarcinoma cell line growth inhibition [Asc]
Settings: for IC50: curve of first compound; for viability, T/C: stronger effect = lower value
Summary of the method: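 Complex solid-tumor spheroids incorporating human endothelial and mesenchymal stem cells received single agents or combinations over half-log dilution ranges anchored to clinical Cmax.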

[1] = second compound 0.1 µM, first compound 0.00949 µM
[2] = second compound 0.1 µM, first compound 0.03 µM
[3] = second compound 0.1 µM, first compound 0.0949 µM
[4] = second compound 0.1 µM, first compound 0.3 µM
[5] = second compound 0.1 µM, first compound 0.949 µM
[6] = second compound 0.1 µM, first compound 3 µM
[7] = second compound 0.316 µM, first compound 0.00949 µM
[8] = second compound 0.316 µM, first compound 0.03 µM
[9] = second compound 0.316 µM, first compound 0.0949 µM
[10] = second compound 0.316 µM, first compound 0.3 µM
[11] = second compound 0.316 µM, first compound 0.949 µM
[12] = second compound 0.316 µM, first compound 3 µM
[13] = second compound 1 µM, first compound 0.00949 µM
[14] = second compound 1 µM, first compound 0.03 µM
[15] = second compound 1 µM, first compound 0.0949 µM
[16] = second compound 1 µM, first compound 0.3 µM
[17] = second compound 1 µM, first compound 0.949 µM
[18] = second compound 1 µM, first compound 3 µM
[19] = second compound 3.16 µM, first compound 0.00949 µM
[20] = second compound 3.16 µM, first compound 0.03 µM
[21] = second compound 3.16 µM, first compound 0.0949 µM
[22] = second compound 3.16 µM, first compound 0.3 µM
[23] = second compound 3.16 µM, first compound 0.949 µM
[24] = second compound 3.16 µM, first compound 3 µM
[25] = second compound 10 µM, first compound 0.00949 µM
[26] = second compound 10 µM, first compound 0.03 µM
[27] = second compound 10 µM, first compound 0.0949 µM
[28] = second compound 10 µM, first compound 0.3 µM
[29] = second compound 10 µM, first compound 0.949 µM
[30] = second compound 10 µM, first compound 3 µM
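Note: spheroids exposed to agents for seven days before readout.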
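Throughout, for viability, T/C: 100% = DMSO vehicle control viability.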

With `CCN1C(C(=O)NC23CCC(C(=O)O)(CC2)CC3)C(c2cccc(Cl)c2F)C2(C(=O)Nc3cc(Cl)ccc32)C12CCCCC2` (stereo not given) + Cc1c(S(C)(=O)=O)c(-c2cc(F)cc(N3CCN(c4ccc(NS(=O)(=O)c5ccc(NC(CCN6CCC(C(=O)OCCCP(=O)(O)O)CC6)CSc6ccccc6)c(S(=O)(=O)C(F)(F)F)c5)cc4)CC3)c2)c(-c2ccc(Cl)cc2)n1C(C)C the IC50 (second compound 0.1 µM) was 490 nM, the IC50 (second compound 0.316 µM) was 123 nM and the IC50 (second compound 1 µM) was 11 nM. For the same molecule, the IC50 (second compound 3.16 µM) was < 9.49 nM, the IC50 (second compound 10 µM) was < 9.49 nM and the viability, T/C [1] was 92.5%. For the same molecule, the viability, T/C [2] was 101%, the viability, T/C [3] was 77.3% and the viability, T/C [4] was 50.7%. The viability, T/C [5] was 43.3%, the viability, T/C [6] was 2.3% and the viability, T/C [7] was 89.4%. It also gave a viability, T/C [8] of 81.1%, a viability, T/C [9] of 51.6% and a viability, T/C [10] of 34.3%. It also gave a viability, T/C [11] of 3.82%, a viability, T/C [12] of 0.48% and a viability, T/C [13] of 53.2%. It also gave a viability, T/C [14] of 29.8%, a viability, T/C [15] of 17.1% and a viability, T/C [16] of 7.2%. It also gave a viability, T/C [17] of 2.56%, a viability, T/C [18] of 0.18% and a viability, T/C [19] of 20.3%. For the same molecule, the viability, T/C [20] was 5.05%, the viability, T/C [21] was 1.2% and the viability, T/C [22] was 0.74%. For the same molecule, the viability, T/C [23] was 0.06%, the viability, T/C [24] was 0.2% and the viability, T/C [25] was 4.94%. For the same molecule, the viability, T/C [26] was 1.17%, the viability, T/C [27] was 0.43% and the viability, T/C [28] was 0.5%. For the same molecule, the viability, T/C [29] was 1.65% and the viability, T/C [30] was 1.41%.

In the case of `Cc1nc(N2CCC3(CC2)COC(C)C3N)c(CO)nc1Sc1ccnc(N)c1Cl` (stereo not given) + Cc1c(S(C)(=O)=O)c(-c2cc(F)cc(N3CCN(c4ccc(NS(=O)(=O)c5ccc(NC(CCN6CCC(C(=O)OCCCP(=O)(O)O)CC6)CSc6ccccc6)c(S(=O)(=O)C(F)(F)F)c5)cc4)CC3)c2)c(-c2ccc(Cl)cc2)n1C(C)C, the IC50 (second compound 0.1 µM) is reported as > 3000 nM, the IC50 (second compound 0.316 µM) is reported as > 3000 nM and the IC50 (second compound 1 µM) is reported as > 3000 nM. The IC50 (second compound 3.16 µM) was < 9.49 nM, the IC50 (second compound 10 µM) was < 9.49 nM and the viability, T/C [1] was 97.8%. For the same molecule, the viability, T/C [2] was 102%, the viability, T/C [3] was 100% and the viability, T/C [4] was 95.9%. It also gave a viability, T/C [5] of 84.5%, a viability, T/C [6] of 76.7% and a viability, T/C [7] of 96.7%. For the same molecule, the viability, T/C [8] was 92.8%, the viability, T/C [9] was 94.5% and the viability, T/C [10] was 94.9%. For the same molecule, the viability, T/C [11] was 76.6%, the viability, T/C [12] was 71.3% and the viability, T/C [13] was 68%. The viability, T/C [14] was 67.8%, the viability, T/C [15] was 68.9% and the viability, T/C [16] was 66.7%. The viability, T/C [17] was 61.7%, the viability, T/C [18] was 55.6% and the viability, T/C [19] was 38.2%. It also gave a viability, T/C [20] of 38.4%, a viability, T/C [21] of 34.2% and a viability, T/C [22] of 36.8%. It also gave a viability, T/C [23] of 25.9%, a viability, T/C [24] of 21.9% and a viability, T/C [25] of 29.4%. For the same molecule, the viability, T/C [26] was 25.6%, the viability, T/C [27] was 30.2% and the viability, T/C [28] was 21.1%. It also gave a viability, T/C [29] of 9.17% and a viability, T/C [30] of 6.63%.

In the case of `NC(=O)C(=Cn1cnc(-c2cc(C(F)(F)F)cc(C(F)(F)F)c2)n1)c1cncnc1` + Cc1c(S(C)(=O)=O)c(-c2cc(F)cc(N3CCN(c4ccc(NS(=O)(=O)c5ccc(NC(CCN6CCC(C(=O)OCCCP(=O)(O)O)CC6)CSc6ccccc6)c(S(=O)(=O)C(F)(F)F)c5)cc4)CC3)c2)c(-c2ccc(Cl)cc2)n1C(C)C, the IC50 (second compound 0.1 µM) is reported as > 300 nM, the IC50 (second compound 0.316 µM) is reported as 143 nM and the IC50 (second compound 1 µM) is reported as 36.6 nM. The IC50 (second compound 3.16 µM) was < 0.949 nM, the IC50 (second compound 10 µM) was < 0.949 nM and the viability, T/C (second compound 0.1 µM, first compound 0.000949 µM) was 91.7%. For the same molecule, the viability, T/C (second compound 0.1 µM, first compound 0.003 µM) was 91.1%, the viability, T/C [1] was 87.2% and the viability, T/C [2] was 91.7%. It also gave a viability, T/C [3] of 81%, a viability, T/C [4] of 71.8% and a viability, T/C (second compound 0.316 µM, first compound 0.000949 µM) of 95.6%. The viability, T/C (second compound 0.316 µM, first compound 0.003 µM) was 97.5%, the viability, T/C [7] was 89.3% and the viability, T/C [8] was 78.8%. For the same molecule, the viability, T/C [9] was 64.7%, the viability, T/C [10] was 26.7% and the viability, T/C (second compound 1 µM, first compound 0.000949 µM) was 67%. For the same molecule, the viability, T/C (second compound 1 µM, first compound 0.003 µM) was 71.3%, the viability, T/C [13] was 68.5% and the viability, T/C [14] was 55.9%. The viability, T/C [15] was 20.6%, the viability, T/C [16] was 1.76% and the viability, T/C (second compound 3.16 µM, first compound 0.000949 µM) was 41.7%. It also gave a viability, T/C (second compound 3.16 µM, first compound 0.003 µM) of 42.7%, a viability, T/C [19] of 34.4% and a viability, T/C [20] of 24.3%. The viability, T/C [21] was 2.24%, the viability, T/C [22] was 0.67% and the viability, T/C (second compound 10 µM, first compound 0.000949 µM) was 27.9%. For the same molecule, the viability, T/C (second compound 10 µM, first compound 0.003 µM) was 25%, the viability, T/C [25] was 19.2% and the viability, T/C [26] was 6.13%. It also gave a viability, T/C [27] of 0.4% and a viability, T/C [28] of 0.25%.

`CCN1CCN(Cc2ccc(Nc3ncc(F)c(-c4cc(F)c5nc(C)n(C(C)C)c5c4)n3)nc2)CC1` + Cc1c(S(C)(=O)=O)c(-c2cc(F)cc(N3CCN(c4ccc(NS(=O)(=O)c5ccc(NC(CCN6CCC(C(=O)OCCCP(=O)(O)O)CC6)CSc6ccccc6)c(S(=O)(=O)C(F)(F)F)c5)cc4)CC3)c2)c(-c2ccc(Cl)cc2)n1C(C)C was tested, and the IC50 (second compound 0.1 µM) was > 1000 nM, the IC50 (second compound 0.316 µM) was > 1000 nM and the IC50 (second compound 1 µM) was > 1000 nM. The IC50 (second compound 3.16 µM) was < 3.16 nM, the IC50 (second compound 10 µM) was < 3.16 nM and the viability, T/C (second compound 0.1 µM, first compound 0.00316 µM) was 92.5%. For the same molecule, the viability, T/C (second compound 0.1 µM, first compound 0.01 µM) was 89.3%, the viability, T/C (second compound 0.1 µM, first compound 0.0316 µM) was 92.6% and the viability, T/C (second compound 0.1 µM, first compound 0.1 µM) was 96.5%. It also gave a viability, T/C (second compound 0.1 µM, first compound 0.316 µM) of 100%, a viability, T/C (second compound 0.1 µM, first compound 1 µM) of 129% and a viability, T/C (second compound 0.316 µM, first compound 0.00316 µM) of 86%. For the same molecule, the viability, T/C (second compound 0.316 µM, first compound 0.01 µM) was 84.9%, the viability, T/C (second compound 0.316 µM, first compound 0.0316 µM) was 93.2% and the viability, T/C (second compound 0.316 µM, first compound 0.1 µM) was 99.7%. For the same molecule, the viability, T/C (second compound 0.316 µM, first compound 0.316 µM) was 109%, the viability, T/C (second compound 0.316 µM, first compound 1 µM) was 130% and the viability, T/C (second compound 1 µM, first compound 0.00316 µM) was 68.5%. The viability, T/C (second compound 1 µM, first compound 0.01 µM) was 75.8%, the viability, T/C (second compound 1 µM, first compound 0.0316 µM) was 77.9% and the viability, T/C (second compound 1 µM, first compound 0.1 µM) was 78%. It also gave a viability, T/C (second compound 1 µM, first compound 0.316 µM) of 99.3%, a viability, T/C (second compound 1 µM, first compound 1 µM) of 95.9% and a viability, T/C (second compound 3.16 µM, first compound 0.00316 µM) of 45.9%. It also gave a viability, T/C (second compound 3.16 µM, first compound 0.01 µM) of 52.7%, a viability, T/C (second compound 3.16 µM, first compound 0.0316 µM) of 58.6% and a viability, T/C (second compound 3.16 µM, first compound 0.1 µM) of 69%. For the same molecule, the viability, T/C (second compound 3.16 µM, first compound 0.316 µM) was 86.1%, the viability, T/C (second compound 3.16 µM, first compound 1 µM) was 54.8% and the viability, T/C (second compound 10 µM, first compound 0.00316 µM) was 30%. It also gave a viability, T/C (second compound 10 µM, first compound 0.01 µM) of 32.9%, a viability, T/C (second compound 10 µM, first compound 0.0316 µM) of 34% and a viability, T/C (second compound 10 µM, first compound 0.1 µM) of 39.4%. For the same molecule, the viability, T/C (second compound 10 µM, first compound 0.316 µM) was 67.7% and the viability, T/C (second compound 10 µM, first compound 1 µM) was 24.7%.
